From patent publication US20200077655A1, “Use of an Acyclic Picolinamide Compound as a Fungicide for Control of Phytopathogenic Fungi in Orchard, Vineyard and Plantation Crops” (Dow AgroSciences LLC, priority 2017, published 2020)

What was measured:
Type in all cases: in vivo
[1] = tested on: Cladosporium carpopilum (CLADSP); test: Field assessment of almond scab; settings: almond nut incidence, 121 DAAA
Description: A fungicidal treatment containing Compound I, applied in an SC formulation (MSO built-in) and tank mixed with an adjuvant (Agnique BP-420, 50% w/w at 0.2% v/v or Adsee C80W 80%), was sprayed as a single application on almond trees (PRNDU, Winter variety) at rates of 60, 120, 150, and 180 g ai/ha. The experimental plots were run with natural infestation. The treatment was part of an experimental trial designed as a randomized complete block (RCB) with three replications and a plot of approximately 16×22 ft. Compound I was applied at water volume of 100 gal/acre, using a Mistblower sprayer (Orifice nozzle 2.3 setting).
Nut incidence (number of visual diseased nuts per 10 nuts per tree on whole plot) was assessed 121 days after application A (121 DAAA). Using Abbotts, % nut incidence of the treatments was used vs the nontreated to calculate % control.

[2] = tested on: Botrytis cinerea (BOTRCI); test: Field assessment of gray mold on strawberry
Description: On strawberry: A fungicidal treatment containing Compound I, applied in a 5% EC formulation and tank mixed with an adjuvant (Trycol, 50% w/w at 0.2% v/v), was sprayed on strawberry plants (FRAAN, Candonga variety) at rates of 50, 150 and 200 grams of active ingredient per hectare (g ai/ha). The trial was based on four broadcast applications during the growing season at approximately 10 day intervals with grey mold inoculation after the last application (plant growth stage B85). The treatment was part of an experimental trial designed as a randomized complete block with four replications and a plot size of approximately 2.0×5.0 m. Formulations of compound I were applied at water volume of 800 L/ha, using a backpack plot sprayer (BKPCKENG, solo 433; HCSOLID—Albutz ATR80 Yellow nozzle) and pressurized at 300 kPa.
Disease severity was recorded as a percentage of fruit incidence of damaged fruits on a random sample of 100 fruits per plot. Gray mold infection was assessed twice at 10 days after the third application (10DAAC) and 10DAAD. Area under the disease progress curve (AUDPC) was calculated for each plot using the sets of recorded incidence data. Relative AUDPC (% control based on AUDPC) was calculated as percent of the nontreated control.

[3] = tested on: Tranzschelia discolor (TRANDI); test: Field assessment of rust in almond; settings: untreated 61.3
Description: A fungicidal treatment containing Compound I, applied in an SC formulation (MSO-buit in) and tank mixed with an adjuvant (Adsee C80W 80%), was sprayed on almond trees (PRNDU, Butte variety) with 2 applications at growth stages BBCH67-69 and BBCH69-72 at rates of 60, 120, 150, and 180 g ai/ha. The experimental plots were run under natural infestation. The treatments were part of an experimental trial designed as a randomized complete block (RCB) with three replications and a plot of approximately 16×22 ft. Compound I was applied at water volume of 100 gal/acre, using a motorized backpack sprayer.
Percent leaf incidence (calculated from number of visual diseased leaves per 50 leaves per one tree) was assessed and recorded at 105 days after application A (105 DAAA).

[4] = tested on: Rhizopus stolonifer (RIZPST); test: Field microplot assessment on Rhizopus rot on peaches; settings: field grown peaches, 17 days after first application
[5] = tested on: Podosphaera leucotricha (PODOLE); test: Field assessment of apple powdery mildew; settings: apples, 5% EC + ETHOMEEN T18H
Method: Assessment of compound I of PODOLE on apples was performed in two separate field trials. For the first trial, a fungicidal treatment containing a 5% EC formulation of compound I plus an adjuvant (ETHOMEEN T18H, 50% w/w at 1.0% v/v), was sprayed on the plant canopy of apples (MABSD, Imperatore Dallago variety) seven times during the growing season, the first application at BBCH 61 of plant growth stage, under natural infection of powdery mildew under open field conditions. The following six applications were applied in approximately 10 day intervals. Formulations of compound I were applied at rates of 100, 150, and 200 grams of active ingredient per hectare (g ai/ha). The treatment was part of an experimental trial designed as a randomized complete block with four replications and a plot of approximately 4.2×7.5 m. Formulations of compound I were applied at water volume of 800 L/ha, using a backpack plot sprayer (TRACKSP, Andreoli Engineering) and pressurized at 450 kPa.
For the second trial, a fungicidal treatment containing a 5% EC formulation of compound I plus an adjuvant (ETHOMEEN T18H, 50% w/w at 1.0% v/v), was sprayed on the plant canopy of apples (MABSD, Imperatore Dallago variety) seven times during the growing season, the first application at BBCH 61 of plant growth stage, under natural infection of powdery mildew under open field conditions. The following six applications were applied in approximately 10 day intervals. Formulations of compound I were applied at rates of 100, 150, and 200 grams of active ingredient per hectare (g ai/ha). The treatment was part of an experimental trial designed as a randomized complete block with four replications and a plot of approximately 4.2×7.5 m. Formulations of compound I were applied at water volume of 800 L/ha, using a self-propelled multi-plot track sprayer (TRACKSP, Andreoli Engineering) and pressurized at 450 kPa.
Disease severity in both trials was assessed as the percentage of leaf incidence and leaf infection on a random selection of 100 leaves. In the first trial, powdery mildew infection was assessed three times, 3 days after application D (3DAAD), 7DAAF, and SDAAG. In the second trial, powdery mildew infection was assessed four times, 6DAAB, 2DAAD, 7DAAF and SDAAG. Area under the disease progress curve (AUDPC) was calculated for each plot using the sets of recorded visual infection data. Relative AUDPC (% control based on AUDPC) was calculated as percent of the nontreated control.

Compound: COc1ccnc(C(=O)N[C@@H](C)C(=O)O[C@@H](C)C(c2ccc(F)cc2)c2ccc(F)cc2)c1OC(C)=O [Compound I, (S)-1,1-bis(4-fluorophenyl)propan-2-yl (3-acetoxy-4-methoxypicolinoyl)-L-alaninate]
- Calc Percent Control of CLADSP ([1]; 60 g ai/ha, Agnique BP420, 240 mL/ha): 47.3%
- Calc Percent Control of CLADSP ([1]; 60 g ai/ha, MSO, 120 g ai/ha): 61.8%
- Calc Percent Control of CLADSP ([1]; 120 g ai/ha, Agnique BP420, 480 mL/ha): 68.2%
- Calc Percent Control of CLADSP ([1]; 120 g ai/ha, MSO, 240 g ai/ha): 97.0%
- Calc Percent Control of CLADSP ([1]; 150 g ai/ha, Agnique BP420, 600 mL/ha): 69.7%
- Calc Percent Control of CLADSP ([1]; 150 g ai/ha, MSO, 300 g ai/ha): 55.1%
- Calc Percent Control of CLADSP ([1]; 180 g ai/ha, Agnique BP420, 720 mL/ha): 90.9%
- Calc Percent Control of CLADSP ([1]; 180 g ai/ha, MSO, 360 g ai/ha): 39.5%
- Percent control (AUDPC) from fruit infection assessments ([2]; 50 g ai/ha): B (51-75)
- Percent control (AUDPC) from fruit infection assessments ([2]; 150 g ai/ha): A (76-100)
- Percent control (AUDPC) from fruit infection assessments ([2]; 200 g ai/ha): A (76-100)
- Percent Visual Leaf Incidence of TRANDI 89 DAAB ([3]; 60 g ai/ha, MSO, 120 g ai/ha): 13.3%
- Percent Visual Leaf Incidence of TRANDI 89 DAAB ([3]; 120 g ai/ha, Adsee C80W, 300 g ai/ha): 11.3%
- Percent Visual Leaf Incidence of TRANDI 89 DAAB ([3]; 120 g ai/ha, MSO, 240 g ai/ha): 9.3%
- Percent Visual Leaf Incidence of TRANDI 89 DAAB ([3]; 150 g ai/ha, MSO, 300 g ai/ha): 6.0%
- Percent Visual Leaf Incidence of TRANDI 89 DAAB ([3]; 180 g ai/ha, MSO, 360 g ai/ha): 6.0%
- RIZPST, percentage of diseased peaches (Incidence) ([4]; 50 g ai/ha): 67.5%
- RIZPST, percentage of diseased peaches (Incidence) ([4]; 100 g ai/ha): 22.5%
- RIZPST, percentage of diseased peaches (Incidence) ([4]; 150 g ai/ha): 35.0%
- Percent control (AUDPC) from leaf infection assessments ([5]; Trial 1, 100 g ai/ha): B (51-75)
- Percent control (AUDPC) from leaf infection assessments ([5]; Trial 1, 150 g ai/ha): A (76-100)
- Percent control (AUDPC) from leaf infection assessments ([5]; Trial 1, 200 g ai/ha): A (76-100)
- Percent control (AUDPC) from leaf infection assessments ([5]; Trial 2, 100 g ai/ha): A (76-100)
- Percent control (AUDPC) from leaf infection assessments ([5]; Trial 2, 150 g ai/ha): A (76-100)
- Percent control (AUDPC) from leaf infection assessments ([5]; Trial 2, 200 g ai/ha): A (76-100)
